Measurements: patent US9949961B2, “Agent for the prophylaxis and/or treatment of neoplastic diseases” (priority 2013, dated 2018)

Key:
[1] = test system: hepatic tumors induced by DENA; assay: Preventive effect on hepatic neoplasms induced by N-diethyl nitrosamine (DENA) in rats; assay type: in vivo, male Wistar rats; conditions: for Preventive effect in relation to hepatic tumors: 25 mg/kg a day, DENA carcinogenesis in rats; for Weight of rats / Number of animals with induced tumors / Number of hepatic tumors: 25 mg/kg/day in drinking water, DENA 30 mg/kg/week i.p.; for Weight of rats: from 3 weeks prior to DENA and then 2.5 months; for Number of animals with induced tumors: 16 animals in group; for Number of hepatic tumors: counted visually on liver surface
Description: The efficacy of preventive effects of Products 1 and 2 in relation to hepatic neoplasms was shown in the experiment on male Wistar rats which were intraperitoneally administered with chemical carcinogen-N-diethyl nitrosamine (DENA) (Nitrosodiethylamin (N—N)). The nature of the invention is explained with the execution example.
To solve the task, 3 groups of male Wistar rats weighing 150-200 g were formed, 16 in each. Rats of the control group were administered intraperitoneally with DENA in dose 30 mg/kg/week. The dosage was administered in 2 doses: Monday and Thursday. The animals of test groups were similarly administered with DENA. Rats of test groups took drinking water in addition to Products 1 and 2 assuming that they took 25 mg/kg of body weight/day with water. The animals started taking the products 3 weeks prior administration of N-diethyl nitrosamine to develop protective background in animal body and subsequently for 2.5 months.
During the experiment, weight of rats was controlled. After autopsy of animals, liver was weighted, tumors were visually counted on its surface and photographed.

[2] = test system: neuroblastoma N2A cell culture; conditions: cited from earlier work
[3] = test system: Lewis carcinoma; assay: Anti-neoplastic and anti-metastatic activity in mice with Lewis carcinoma implanted to the paw; assay type: in vivo, male mice F1 (CBA×C57B1/6); conditions: for Number of lung metastases: day 21 after tumor implantation; for Growth of Lewis carcinoma in mice: 5 and 25 mg/kg, inhibition is dose-related
Description: The efficacy of anti-neoplastic (anti-proliferative) and anti-metastatic properties of products 1 and 2 was shown in the experiment on male mice F1 (CBA×CS7B1/6) with Lewis carcinoma implanted to the paw following intragastric administration in two doses: 5 mg/kg and 25 mg/kg for 3 weeks immediately after implantation and within 1 week prior tumor transplantation.
Test system. To examine anti-neoplastic (anti-proliferative) and anti-metastatic properties of products 1 and 2, 120 hybrid male mice of the first generation CBA×[…] were used: each group of 10-12 mice. Lewis carcinoma was implanted to a hind paw, in the amount ˜10^6 cells (˜0.2 cm^3) Doses and dosing schemes for products 1 and 2. Route of the product administration—per os provided addition of products 1 and 2 to drinking water which was given to animals. Products 1 and 2 were added to drinking water by two schemes: within 3 weeks immediately after implantation and within 4 weeks with the dosing started prior implantation.
Anti-neoplastic (anti-proliferative) and anti-metastatic activity of products 1 and 2 was assessed based on change of tumor volume and number of lung metastases. The number of metastases was assessed on day 21 after tumor implantation (day 28 after the administration of products 1 and 2 by the 1-st scheme). For that, lungs were withdrawn in animals decapitated under anesthesia and transferred to Bouin's fluid. Metastases were visually counted. The volume of neoplasm was assessed by ellipsoid equation (1). […]
[formula] where: d1, d2, d3—mutually perpendicular tumor sizes.

[4] = 5 mg/kg per os in drinking water, after implantation (scheme 2), day 1
[5] = 5 mg/kg per os in drinking water, after implantation (scheme 2), day 7
[6] = 5 mg/kg per os in drinking water, after implantation (scheme 2), day 15
[7] = 5 mg/kg per os in drinking water, prior and after implantation (scheme 1), day 1
[8] = 5 mg/kg per os in drinking water, prior and after implantation (scheme 1), day 7
[9] = 5 mg/kg per os in drinking water, prior and after implantation (scheme 1), day 15
[10] = 5 mg/kg, after implantation (scheme 2)
[11] = 5 mg/kg, prior and after implantation (scheme 1)
[12] = 25 mg/kg per os in drinking water, after implantation (scheme 2), day 1
[13] = 25 mg/kg per os in drinking water, after implantation (scheme 2), day 7
[14] = 25 mg/kg per os in drinking water, after implantation (scheme 2), day 15
[15] = 25 mg/kg per os in drinking water, prior and after implantation (scheme 1), day 1
[16] = 25 mg/kg per os in drinking water, prior and after implantation (scheme 1), day 7
[17] = 25 mg/kg per os in drinking water, prior and after implantation (scheme 1), day 15
[18] = 25 mg/kg, after implantation (scheme 2)
[19] = 25 mg/kg, prior and after implantation (scheme 1)

Row | Structure (SMILES) | Preventive effect in relation to hepatic tumors [1] | Weight of rats [1] [g] | Number of animals with induced tumors [1] | Number of hepatic tumors [1] | Tumor volume [3, 4] [mm^3] | Tumor volume [3, 5] [mm^3] | Tumor volume [3, 6] | Tumor volume [3, 7] [mm^3] | Tumor volume [3, 8] [mm^3] | Tumor volume [3, 9] | Number of lung metastases [3, 10] | Number of lung metastases [3, 11] | Tumor volume [3, 12] [mm^3] | Tumor volume [3, 13] [mm^3] | Tumor volume [3, 14] | Tumor volume [3, 15] [mm^3] | Tumor volume [3, 16] [mm^3] | Tumor volume [3, 17] | Number of lung metastases [3, 18] | Number of lung metastases [3, 19] | other results
1 | O=C1CSC(=S)N1CCc1ccccc1 [Product 1] | have preventive effect | 146.4 ± 3.57 | 15 | 15.1 ± 2.88 | 52 ± 17 | 708 ± 86 | 1826 ± 196 (P < 0.05) mm^3 | 40 ± 15 | 715 ± 103 | 1597 ± 133 (P < 0.01)^2 mm^3 | 32.8 ± 8.1 | 42.2 ± 7.1 | 60 ± 19 | 812 ± 153 | 1437 ± 325 (P < 0.01) mm^3 | 101 ± 29 | 671 ± 104 | 1225 ± 214 (P < 0.01) mm^3 | 20.3 ± 4.2 (P < 0.01)^2 | 33.1 ± 9.1 | Anti-proliferative effect [2]: anti-proliferative effect; Growth of Lewis carcinoma in mice [3]: able to inhibit growth
2 | O=C1CSC(=S)N1CCc1ccncc1 [Product 2] | have preventive effect | 145.9 ± 1.26 | 15 | 16.6 ± 3.12 | 49 ± 15 | 702 ± 92 | 1806 ± 203 (P < 0.05) mm^3 | 39 ± 13 | 706 ± 99 | 1588 ± 127 (P < 0.01)^3 mm^3 | 33.3 ± 7.8 | 43.4 ± 6.5 | 70 ± 14 | 827 ± 140 | 1459 ± 299 (P < 0.01) mm^3 | 98 ± 95 | 650 ± 97 | 1204 ± 226 (P < 0.01) mm^3 | 19.0 ± 5.1 (P < 0.01)^3 | 34.2 ± 8.9 | Growth of Lewis carcinoma in mice [3]: able to inhibit growth
